{"source": "ChEMBL document CHEMBL5523718", "about": "“Design, synthesis, molecular modeling, in vitro and in vivo biological evaluation of potent anthranilamide derivatives as dual P-glycoprotein and CYP3A4 inhibitors” (Eur J Med Chem, 2024)", "key": {"MES-SA/Dx5": {"system": "MES-SA/Dx5", "experiment": "Cytotoxicity against human MES-SA/Dx5 cells at 1.28 uM incubated for 3 days by MTT assay relative to control", "assay_type": "functional", "conditions": "time 3 day"}, "[1]": {"experiment": "Apparent permeability of compound across basolateral to apical side in human Caco-2 cells", "assay_type": "ADME, cell-based"}, "[2]": {"experiment": "Apparent permeability of compound across apical to basolateral side in human Caco-2 cells", "assay_type": "ADME, cell-based"}, "[3]": {"experiment": "Inhibition of CYP3A4 in rat liver using luciferin-IPA as substrate microsome preincubated with compound for 10 mins followed by NADPH addition and measured after 5 mins", "assay_type": "ADME, microsomes"}, "[4]": {"experiment": "Metabolic stability in human liver microsome assessed as intrinsic clearance", "assay_type": "ADME", "conditions": "microsomes"}, "[5]": {"experiment": "Metabolic stability in rat liver microsome assessed as intrinsic clearance", "assay_type": "ADME", "conditions": "microsomes"}, "[6]": {"experiment": "Metabolic stability in mouse liver microsome assessed as intrinsic clearance", "assay_type": "ADME", "conditions": "microsomes"}, "[7]": {"target": "ATP-dependent translocase ABCB1 (Homo sapiens, UniProt P08183)", "sequence (P08183 whole entry)": "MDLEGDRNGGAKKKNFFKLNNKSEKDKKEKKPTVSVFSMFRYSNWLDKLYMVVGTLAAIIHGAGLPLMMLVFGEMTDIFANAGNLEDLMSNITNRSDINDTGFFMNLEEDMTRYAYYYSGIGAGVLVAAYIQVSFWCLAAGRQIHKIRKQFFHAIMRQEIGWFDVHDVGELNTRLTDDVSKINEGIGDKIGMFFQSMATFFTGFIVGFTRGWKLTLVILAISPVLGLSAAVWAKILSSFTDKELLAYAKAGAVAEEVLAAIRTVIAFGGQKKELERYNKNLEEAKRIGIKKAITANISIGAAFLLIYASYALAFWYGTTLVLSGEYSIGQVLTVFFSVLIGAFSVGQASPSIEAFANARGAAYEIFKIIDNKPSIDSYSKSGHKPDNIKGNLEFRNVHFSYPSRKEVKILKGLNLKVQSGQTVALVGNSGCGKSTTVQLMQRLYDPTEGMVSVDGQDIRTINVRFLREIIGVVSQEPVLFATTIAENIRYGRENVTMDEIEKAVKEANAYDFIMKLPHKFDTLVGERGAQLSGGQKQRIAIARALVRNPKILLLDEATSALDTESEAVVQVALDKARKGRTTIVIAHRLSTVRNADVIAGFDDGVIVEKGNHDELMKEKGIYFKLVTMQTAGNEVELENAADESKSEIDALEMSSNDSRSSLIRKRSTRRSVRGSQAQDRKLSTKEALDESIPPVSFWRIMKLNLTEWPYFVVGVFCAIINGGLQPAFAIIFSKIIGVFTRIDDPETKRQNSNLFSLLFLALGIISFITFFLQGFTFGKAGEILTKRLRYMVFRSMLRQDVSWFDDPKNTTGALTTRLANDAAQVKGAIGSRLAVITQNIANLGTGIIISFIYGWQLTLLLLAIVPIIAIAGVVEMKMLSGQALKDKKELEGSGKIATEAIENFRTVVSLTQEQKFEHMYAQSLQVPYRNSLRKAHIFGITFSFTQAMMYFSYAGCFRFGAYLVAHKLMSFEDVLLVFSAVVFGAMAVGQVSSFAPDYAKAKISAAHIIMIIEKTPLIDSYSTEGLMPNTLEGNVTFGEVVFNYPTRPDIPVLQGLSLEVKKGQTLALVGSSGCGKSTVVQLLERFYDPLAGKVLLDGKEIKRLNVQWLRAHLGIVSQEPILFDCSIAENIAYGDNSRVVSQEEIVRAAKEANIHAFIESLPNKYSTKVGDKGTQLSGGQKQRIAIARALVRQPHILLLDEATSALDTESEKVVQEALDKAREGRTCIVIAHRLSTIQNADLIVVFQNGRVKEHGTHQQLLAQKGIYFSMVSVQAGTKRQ", "experiment": "Inhibition of P-gp (unknown origin) ATPase activity"}, "[8]": {"experiment": "Inhibition of MRP1 (unknown origin) ATPase activity", "set-up": "species or system Homo sapiens"}, "Cytochrome P450 1A2": {"target": "T1, Cytochrome P450 1A2 (Homo sapiens, UniProt P05177)", "T1 sequence (P05177 whole entry)": "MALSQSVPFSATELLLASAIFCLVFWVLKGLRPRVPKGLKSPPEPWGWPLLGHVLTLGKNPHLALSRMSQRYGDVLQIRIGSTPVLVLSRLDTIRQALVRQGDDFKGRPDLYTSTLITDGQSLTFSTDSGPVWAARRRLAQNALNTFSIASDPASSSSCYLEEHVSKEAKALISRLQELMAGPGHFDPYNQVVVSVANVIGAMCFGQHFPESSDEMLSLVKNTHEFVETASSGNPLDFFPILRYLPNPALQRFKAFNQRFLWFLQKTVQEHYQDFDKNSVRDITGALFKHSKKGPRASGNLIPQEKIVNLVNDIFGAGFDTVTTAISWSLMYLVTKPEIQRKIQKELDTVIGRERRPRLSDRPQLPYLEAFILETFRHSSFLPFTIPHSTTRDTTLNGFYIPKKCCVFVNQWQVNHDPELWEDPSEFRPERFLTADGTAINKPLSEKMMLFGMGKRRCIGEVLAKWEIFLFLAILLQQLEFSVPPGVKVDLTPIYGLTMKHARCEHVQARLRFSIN", "experiment": "Inhibition of CYP1A2 (unknown origin) using Phenacetin as substrate", "assay_type": "ADME"}, "Cytochrome P450 2B6": {"target": "T2, Cytochrome P450 2B6 (Homo sapiens, UniProt P20813)", "T2 sequence (P20813 whole entry)": "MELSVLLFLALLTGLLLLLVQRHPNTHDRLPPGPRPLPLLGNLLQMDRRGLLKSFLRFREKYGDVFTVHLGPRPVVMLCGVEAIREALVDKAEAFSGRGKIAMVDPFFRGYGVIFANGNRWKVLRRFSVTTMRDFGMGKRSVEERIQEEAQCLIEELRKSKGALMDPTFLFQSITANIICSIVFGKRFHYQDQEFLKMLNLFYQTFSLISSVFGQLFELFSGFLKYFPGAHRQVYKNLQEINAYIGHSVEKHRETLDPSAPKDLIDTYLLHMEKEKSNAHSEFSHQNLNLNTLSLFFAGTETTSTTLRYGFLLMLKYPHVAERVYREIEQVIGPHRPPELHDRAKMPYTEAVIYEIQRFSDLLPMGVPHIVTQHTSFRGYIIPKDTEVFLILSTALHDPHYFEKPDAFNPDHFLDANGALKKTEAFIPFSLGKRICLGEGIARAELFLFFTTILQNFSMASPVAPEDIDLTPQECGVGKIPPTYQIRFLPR", "experiment": "Inhibition of CYP2B6 (unknown origin) using Bupropion as substrate", "assay_type": "ADME"}, "Cytochrome P450 2C9": {"target": "Cytochrome P450 2C9 (Homo sapiens, UniProt P11712)", "sequence (P11712 whole entry)": "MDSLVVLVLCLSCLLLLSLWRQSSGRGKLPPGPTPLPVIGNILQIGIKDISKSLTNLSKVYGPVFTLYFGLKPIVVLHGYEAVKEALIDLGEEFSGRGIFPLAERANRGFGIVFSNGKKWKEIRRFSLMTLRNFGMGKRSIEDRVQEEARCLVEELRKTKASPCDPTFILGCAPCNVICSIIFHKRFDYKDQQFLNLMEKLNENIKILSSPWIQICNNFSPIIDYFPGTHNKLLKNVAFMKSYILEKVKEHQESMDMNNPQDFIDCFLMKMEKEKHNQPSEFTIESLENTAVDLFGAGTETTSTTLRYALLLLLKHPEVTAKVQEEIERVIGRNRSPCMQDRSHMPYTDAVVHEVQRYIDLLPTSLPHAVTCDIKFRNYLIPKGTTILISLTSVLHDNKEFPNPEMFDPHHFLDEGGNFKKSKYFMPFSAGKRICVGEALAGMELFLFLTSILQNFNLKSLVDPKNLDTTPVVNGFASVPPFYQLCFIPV", "experiment": "Inhibition of CYP2C9 (unknown origin) using Diclofenac as substrate", "assay_type": "ADME"}, "Cytochrome P450 3A4": {"target": "Cytochrome P450 3A4 (Homo sapiens, UniProt P08684)", "sequence (P08684 whole entry)": "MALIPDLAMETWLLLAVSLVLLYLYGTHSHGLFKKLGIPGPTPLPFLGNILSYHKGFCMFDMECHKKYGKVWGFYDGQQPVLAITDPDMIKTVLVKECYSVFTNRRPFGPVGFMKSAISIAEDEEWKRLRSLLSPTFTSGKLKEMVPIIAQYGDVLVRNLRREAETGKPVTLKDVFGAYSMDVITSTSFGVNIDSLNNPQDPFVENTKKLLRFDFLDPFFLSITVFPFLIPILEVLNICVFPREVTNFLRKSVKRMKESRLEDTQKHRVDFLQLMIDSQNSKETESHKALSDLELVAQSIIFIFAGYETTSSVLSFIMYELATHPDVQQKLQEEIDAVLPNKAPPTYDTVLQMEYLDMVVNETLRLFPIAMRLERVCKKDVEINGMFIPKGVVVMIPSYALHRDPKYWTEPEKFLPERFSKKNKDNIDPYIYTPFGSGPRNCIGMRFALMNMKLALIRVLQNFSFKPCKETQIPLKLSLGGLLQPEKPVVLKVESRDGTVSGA", "experiment": "Inhibition of CYP3A4 (unknown origin) using Midazolam as substrate", "assay_type": "ADME"}}}
{"smiles": "COc1cc(NC(=O)c2cc(=O)c3ccccc3o2)c(C(=O)Nc2ccc(C3CCN(Cc4cccc(-n5ccnc5)c4)CC3)cc2)cc1OC", "values": [{"measurement": "Activity", "setting": "MES-SA/Dx5", "result": 0, "unit": "%"}, {"measurement": "Papp B→A", "setting": "[1]", "result": "< 0.08", "unit": "×10⁻⁶ cm/s"}, {"measurement": "Papp A→B", "setting": "[2]", "result": "< 0.06", "unit": "×10⁻⁶ cm/s"}, {"measurement": "IC50", "setting": "[3]", "result": 0.296, "unit": "µM"}, {"measurement": "CLH", "setting": "[4]", "result": 300, "unit": "µL/min/mg"}, {"measurement": "CLH", "setting": "[5]", "result": 95, "unit": "µL/min/mg"}, {"measurement": "CLH", "setting": "[6]", "result": 38, "unit": "µL/min/mg"}, {"measurement": "IC50", "setting": "[7]", "result": 0.021, "unit": "µM"}, {"measurement": "IC50", "setting": "[8]", "result": "> 10", "unit": "µM"}, {"measurement": "IC50", "setting": "Cytochrome P450 1A2", "result": "> 100", "unit": "µM"}, {"measurement": "IC50", "setting": "Cytochrome P450 2B6", "result": 36, "unit": "µM"}, {"measurement": "IC50", "setting": "Cytochrome P450 2C9", "result": 36, "unit": "µM"}, {"measurement": "IC50", "setting": "Cytochrome P450 3A4", "result": 0.14, "unit": "µM"}]}
